In ChEMBL document CHEMBL1135401, “Pharmacophore mapping of a series of 2,4-diamino-5-deazapteridine inhibitors of Mycobacterium avium complex dihydrofolate reductase” (J Med Chem, 2002):

Target: T1, Dihydrofolate reductase (Mycobacterium avium, UniProt O30463)
T1 sequence (O30463 whole entry): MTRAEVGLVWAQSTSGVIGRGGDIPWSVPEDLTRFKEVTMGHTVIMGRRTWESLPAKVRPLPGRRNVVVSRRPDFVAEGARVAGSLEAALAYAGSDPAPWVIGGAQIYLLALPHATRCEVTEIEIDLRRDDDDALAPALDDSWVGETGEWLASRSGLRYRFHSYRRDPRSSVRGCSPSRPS
Assay: Antimycobacterial activity against Mycobacterium avium complex dihydrofolate reductase (MAC DHFR)

| Compound | IC50 [nM] |
| --- | --- |
| Cc1cc(NCc2cnc3nc(N)nc(N)c3c2C)c(Cl)cc1F | 0.78 |
| Cc1cc(Br)cc(C)c1NCc1cnc2nc(N)nc(N)c2c1C | 5.3 |
| Cc1c(Cl)cccc1NCc1cnc2nc(N)nc(N)c2c1C | 0.82 |
| Cc1c(CNc2cc(Br)ccc2Br)cnc2nc(N)nc(N)c12 | 0.7 |
| Cc1c(CNc2c3ccccc3cc3ccccc23)cnc2nc(N)nc(N)c12 | 620 |
| Cc1ccc(Cl)cc1NCc1cnc2nc(N)nc(N)c2c1C | 0.79 |
| Cc1c(CNc2cc(Cl)ccc2Cl)cnc2nc(N)nc(N)c12 | 0.89 |
| Cc1cc(C)c(NCc2cnc3nc(N)nc(N)c3c2C)c(Cl)c1 | 3.8 |
| Cc1c(CNc2ccc3ncccc3c2)cnc2nc(N)nc(N)c12 | 0.95 |
| COc1cc(-c2ccccc2)ccc1NCc1cnc2nc(N)nc(N)c2c1C | 0.91 |
| CCc1c(CNc2cc(C(F)(F)F)ccc2OC)cnc2nc(N)nc(N)c12 | 0.88 |
| Cc1c(CNC2CCCc3ccccc32)cnc2nc(N)nc(N)c12 (stereo not drawn) | 280 |
| Cc1ccc(NCc2cnc3nc(N)nc(N)c3c2C)cc1Br | 0.6 |
| Cc1cc(Br)ccc1NCc1cnc2nc(N)nc(N)c2c1C | 0.85 |
| COc1cc(SCc2cnc3nc(N)nc(N)c3c2C)cc(OC)c1OC | 4.5 |
| Cc1c(CNc2cnc3ccccc3c2)cnc2nc(N)nc(N)c12 | 1.2 |
| Cc1ccc(Cl)c(NCc2cnc3nc(N)nc(N)c3c2C)c1 | 0.95 |
| CCc1c(CNc2cc(OC)ccc2OC)cnc2nc(N)nc(N)c12 | 2.8 |
| Cc1c(CNc2ccc3c(c2)Cc2ccccc2-3)cnc2nc(N)nc(N)c12 | 0.86 |
| COc1ccc(OC)c(SCc2cnc3nc(N)nc(N)c3c2C)c1 | 23 |

| Compound | IC50 [nM] |
| --- | --- |
| Cc1c(CNc2ccc(Cl)c3ccccc23)cnc2nc(N)nc(N)c12 | 0.43 |
| Cc1cc(NCc2cnc3nc(N)nc(N)c3c2C)ccc1Br | 0.87 |
| COCc1c(CNc2cc(OC)ccc2OC)cnc2nc(N)nc(N)c12 | 2400 |
| Cc1c(CNc2cc(F)ccc2F)cnc2nc(N)nc(N)c12 | 0.9 |
| COCc1c(CNc2ccc(OC)c(OC)c2)cnc2nc(N)nc(N)c12 | 1200 |
| CCCOc1ccc(OCCC)c(NCc2cnc3nc(N)nc(N)c3c2C)c1 | 1 |
| Cc1c(CNc2ccc3ccccc3c2)cnc2nc(N)nc(N)c12 | 0.76 |
| Cc1c(CNc2ccc3c4c(cccc24)-c2ccccc2-3)cnc2nc(N)nc(N)c12 | 1 |
| COc1cc(CCc2cnc3nc(N)nc(N)c3c2C)cc(OC)c1 | 1.5 |
| Cc1c(CNC2c3ccccc3-c3ccccc32)cnc2nc(N)nc(N)c12 | 320 |
| COCc1c(CNc2cc(OC)c(OC)c(OC)c2)cnc2nc(N)nc(N)c12 | 550 |
| Cc1c(CNc2cc(C(F)(F)F)ccc2Br)cnc2nc(N)nc(N)c12 | 0.82 |
| CCCOc1ccc(NCc2cnc3nc(N)nc(N)c3c2C)cc1OC | 0.93 |
| Cc1c(CNc2cccc3ncccc23)cnc2nc(N)nc(N)c12 | 0.98 |
| COc1cc(OC)cc(N(C)Cc2cnc3nc(N)nc(N)c3c2C)c1 | 0.73 |
| Cc1c(CSc2ccc(Cl)cc2)cnc2nc(N)nc(N)c12 | 3.6 |
| Nc1nc(N)c2cc(CNc3cccc4ccccc34)cnc2n1 | 86 |
| COc1ccc(OC)c(NCc2cnc3nc(N)nc(N)c3c2C)c1 | 1.1 |
| COc1ccc(C(F)(F)F)cc1N(C)Cc1cnc2nc(N)nc(N)c2c1C | 1.2 |

Target: T2, Dihydrofolate reductase (Homo sapiens, UniProt P00374)
T2 sequence (P00374 whole entry): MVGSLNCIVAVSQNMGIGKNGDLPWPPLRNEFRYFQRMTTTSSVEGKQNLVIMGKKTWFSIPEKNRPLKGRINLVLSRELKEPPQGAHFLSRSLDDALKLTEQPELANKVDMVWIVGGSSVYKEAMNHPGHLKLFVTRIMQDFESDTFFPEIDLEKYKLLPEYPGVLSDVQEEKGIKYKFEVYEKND
Assay: Antimycobacterial activity against human dihydrofolate reductase (hDHFR)

| Compound | IC50 [nM] |
| --- | --- |
| Cc1cc(NCc2cnc3nc(N)nc(N)c3c2C)c(Cl)cc1F | 33 |
| Cc1cc(Br)cc(C)c1NCc1cnc2nc(N)nc(N)c2c1C | 1900 |
| Cc1c(Cl)cccc1NCc1cnc2nc(N)nc(N)c2c1C | 5.2 |
| Cc1c(CNc2cc(Br)ccc2Br)cnc2nc(N)nc(N)c12 | 4.6 |
| Cc1ccc(Cl)cc1NCc1cnc2nc(N)nc(N)c2c1C | 6.1 |
| Cc1c(CNc2cc(Cl)ccc2Cl)cnc2nc(N)nc(N)c12 | 8 |
| Cc1cc(C)c(NCc2cnc3nc(N)nc(N)c3c2C)c(Cl)c1 | 850 |
| Cc1c(CNc2ccc3ncccc3c2)cnc2nc(N)nc(N)c12 | 7.1 |
| COc1cc(-c2ccccc2)ccc1NCc1cnc2nc(N)nc(N)c2c1C | 68 |
| CCc1c(CNc2cc(C(F)(F)F)ccc2OC)cnc2nc(N)nc(N)c12 | 3.6 |
| Cc1c(CNC2CCCc3ccccc32)cnc2nc(N)nc(N)c12 (stereo not drawn) | 3400 |
| Cc1ccc(NCc2cnc3nc(N)nc(N)c3c2C)cc1Br | 3.7 |
| Cc1cc(Br)ccc1NCc1cnc2nc(N)nc(N)c2c1C | 5.9 |
| COc1cc(SCc2cnc3nc(N)nc(N)c3c2C)cc(OC)c1OC | 1200 |
| Cc1c(CNc2cnc3ccccc3c2)cnc2nc(N)nc(N)c12 | 12 |
| Cc1ccc(Cl)c(NCc2cnc3nc(N)nc(N)c3c2C)c1 | 44 |
| CCc1c(CNc2cc(OC)ccc2OC)cnc2nc(N)nc(N)c12 | 1000 |
| Cc1c(CNc2ccc3c(c2)Cc2ccccc2-3)cnc2nc(N)nc(N)c12 | 6.7 |
| COc1ccc(OC)c(SCc2cnc3nc(N)nc(N)c3c2C)c1 | 2500 |

| Compound | IC50 [nM] |
| --- | --- |
| Cc1c(CNc2ccc(Cl)c3ccccc23)cnc2nc(N)nc(N)c12 | 2 |
| Cc1cc(NCc2cnc3nc(N)nc(N)c3c2C)ccc1Br | 6.1 |
| COCc1c(CNc2cc(OC)ccc2OC)cnc2nc(N)nc(N)c12 | 31000 |
| Cc1c(CNc2cc(F)ccc2F)cnc2nc(N)nc(N)c12 | 69 |
| COCc1c(CNc2ccc(OC)c(OC)c2)cnc2nc(N)nc(N)c12 | 6100 |
| CCCOc1ccc(OCCC)c(NCc2cnc3nc(N)nc(N)c3c2C)c1 | 7300 |
| Cc1c(CNc2ccc3ccccc3c2)cnc2nc(N)nc(N)c12 | 10 |
| Cc1c(CNc2ccc3c4c(cccc24)-c2ccccc2-3)cnc2nc(N)nc(N)c12 | 6.2 |
| COc1cc(CCc2cnc3nc(N)nc(N)c3c2C)cc(OC)c1 | 990 |
| Cc1c(CNC2c3ccccc3-c3ccccc32)cnc2nc(N)nc(N)c12 | 5300 |
| COCc1c(CNc2cc(OC)c(OC)c(OC)c2)cnc2nc(N)nc(N)c12 | 1300 |
| Cc1c(CNc2cc(C(F)(F)F)ccc2Br)cnc2nc(N)nc(N)c12 | 3.2 |
| CCCOc1ccc(NCc2cnc3nc(N)nc(N)c3c2C)cc1OC | 15 |
| Cc1c(CNc2cccc3ncccc23)cnc2nc(N)nc(N)c12 | 4.3 |
| COc1cc(OC)cc(N(C)Cc2cnc3nc(N)nc(N)c3c2C)c1 | 8.7 |
| Cc1c(CSc2ccc(Cl)cc2)cnc2nc(N)nc(N)c12 | 590 |
| Nc1nc(N)c2cc(CNc3cccc4ccccc34)cnc2n1 | 820 |
| COc1ccc(OC)c(NCc2cnc3nc(N)nc(N)c3c2C)c1 | 1000 |
| COc1ccc(C(F)(F)F)cc1N(C)Cc1cnc2nc(N)nc(N)c2c1C | 36 |

Target: T1, Dihydrofolate reductase
Assay: Antimycobacterial activity scale was evaluated and found to be highly active against MAC Dihydrofolate reductase

| Compound | IC50 [nM] |
| --- | --- |
| CCCOc1ccc(NCc2cnc3nc(N)nc(N)c3c2C)cc1OC | < 10 |
